Where “and” joins values, the source holds several entries; their conditions need not be identical. Equal entries are not always repeated. Calls of active or inactive are those of the source.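 How the source made its calls: active means compounds giving half or more protection of infected cells from virus-caused growth loss, again on retest; inactive means the rest.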 Where a SMILES comes first, the peptide text is derived from it.

Consider 74 compounds from PubChem BioAssay AID179 (DTP/NCI, 2004).

In this experiment the test system is CEM cells HIV-1 protection, formazan growth assay. Briefly: NCI AIDS Antiviral Assay. The settings on record: for IC50: measured here: growth of uninfected CEM cells. The gist of the method:
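Protection of CEM cells against HIV-1 measured as cell growth via soluble formazan read-out, with five concentrations tested on both infected and uninfected cells; failure to protect may reflect toxicity.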

As a reminder, the EC50 is the concentration giving half of the maximal effect. As usually defined, the IC50 is the concentration needed to halve the response being measured. For the compound `CC(C)C(O)S(=O)(=O)O` (stereo not drawn), the EC50 is more than 200 µM and the IC50 was more than 200 µM.
With `Cc1ccc(N/C(Sc2ccccc2)=C(/C(Cl)=C(Cl)Cl)[N+](=O)[O-])c(C)c1`, the EC50 is more than 200 µM and the IC50 stood at 27.5 µM.
For `Cc1ccc2c(c1)[nH]c(=S)n2C=C(C(N)=O)C(N)=O`, in that order: more than 200 µM and more than 200 µM.
In the same order, the values of `CC(C)CC(N)C(=O)NC(Cc1cnc[nH]1)C(=O)NC(CC(N)=O)C(=O)NC(C(=O)NC(CO)C(=O)NC(Cc1ccc(O)cc1)C(=O)NC(CO)C(=O)NC(C)C(=O)NC(CCCCN)C(=O)NC(CC(=O)O)C(=O)NC(CC(C)C)C(=O)O)C(C)O` (stereo not drawn) (H-LHNTSYSAKDL-OH; configuration not given here) are more than 50.1 µM and more than 50.1 µM.
In the case of `O=C1C2=C(c3ccccc31)C(c1ccc(Cl)cc1)N1C(=O)CCSC1=N2` (stereo not drawn), the EC50 is more than 49 µM and the IC50 is more than 49 µM.
Consider `COc1ccc(CNc2nc3c(NC(C)=O)cc(C(F)(F)F)cc3nc2-c2ccccc2)cc1OC`, for which the EC50 is more than 10.5 µM and the IC50 is more than 10.5 µM.
Turning to `C=C(C)P(=O)(OC(C)CCl)OC(C)CCl` (stereo not drawn), the EC50 is more than 200 µM and the IC50 was more than 200 µM.
As for `C[C@H](NC(=O)n1c2ccccc2c2ccccc21)C(=O)O`, the EC50 was more than 891 µM and the IC50 came out at 234 µM.
Turning to `O=C(N/N=C1\CCc2ccccc2C1)N/N=C1\CCc2ccccc2C1`, the EC50 was more than 200 µM and the IC50 was found to be 51.3 µM.
For `Cc1cc2[nH]c3c(C#N)c4c(c(=O)n3c2cc1C)CCCC4`, the EC50 is more than 200 µM and the IC50 was more than 200 µM.
Regarding `CC1(C)CC2C(=O)c3ccccc3NC2c2ccccc21` (stereo not drawn), the EC50 is more than 2 µM and the 50% inhibitory concentration (IC50) came out at 0.269 µM.
Take `Cc1cn(C2CC(O[Si](C)(C)C(C)(C)C)C(CN(OC(=O)Oc3ccccc3)C(=O)Oc3ccccc3)O2)c(=O)[nH]c1=O` (stereo not drawn): the EC50 was more than 200 µM and the IC50 was 10.2 µM.
For the compound `Cn1cc(S(=O)(=O)NC(=O)Nc2ccc(Cl)cc2)c(=O)c2ccc(F)cc21`, the outcome was inactive.
As to `O=C(c1cc(O)c(O)c(O)c1)c1ccc(O)c(O)c1O`, the EC50 was more than 200 µM and the IC50 amounted to 3.98 µM.
In the same order, the values of `CCOC(=O)/C=C/c1ccc([N+](=O)[O-])cc1` are more than 32.4 µM and more than 32.4 µM.
For `O=C(c1ccc(S(=O)(=O)c2ccccc2)cc1)c1ccc(S(=O)(=O)c2ccccc2)cc1`, in that order: more than 200 µM and more than 200 µM.
Take `OC1CC2C=CCC(C1)C2` (stereo not drawn): the result was inactive.
Take `CC(O)(c1ccccc1)c1nccc2ccccc12` (stereo not drawn): the EC50 was more than 200 µM and the IC50 came out at 77.6 µM.
For `C=C(C)CN1C(=O)C(C)S/C1=N/N=C1/SCC(=O)N1C` (stereo not drawn), the EC50 was more than 42.7 µM and the IC50 is more than 42.7 µM.
Turning to `Cc1ccc(NC(=O)CC(=O)n2nc(-c3ccccc3)c(N=Nc3ccccc3[N+](=O)[O-])c2-c2ccccc2)cc1`, the EC50 was more than 25.1 µM and the IC50 is more than 25.1 µM.
As to `CSc1nc(Br)nc2ncn(C3CC(Oc4ccc(C)cc4)C(COc4ccc(C)cc4)O3)c12` (stereo not drawn), the EC50 was more than 200 µM and the IC50 is 44.7 µM.
In the same order, the values of `O=C(O)CN(CCOCCOCCN(CC(=O)O)CC(=O)O)CC(=O)O` are more than 95.5 µM and 3.02 µM.
For `O=C1NCN(c2ccccc2)C12CCN(Cc1ccccc1)CC2`, in that order: more than 200 µM and more than 200 µM.
On to `COC(=O)C1(C#N)C(C)(C)N=C(c2ccccc2)C12CCCCC2` (stereo not drawn), for which the EC50 is more than 200 µM and the IC50 came out at 93.3 µM.
In the case of `Cc1ccc(NC(=O)SCCC(=O)O)cc1NC(=O)SCCC(=O)O`, the result was inactive.
For the compound `Cc1cc2c(=O)c3ccccc3[nH]c2c(C(N)=O)c1C`, the result was inactive.
Regarding `CCCC[n+]1cc(C(N)=O)cc2ccccc21`, the EC50 is 0.0692 µM and the IC50 worked out at 219 µM.
Consider `O=C(O)C1CCC(c2ccc(F)cc2F)N1` (stereo not drawn), for which the EC50 is more than 200 µM and the IC50 was more than 200 µM.
Consider `O=[N+]([O-])c1cccc([N+](=O)[O-])c1S(=O)(=O)c1ccccc1`, for which the EC50 is more than 61.7 µM and the IC50 worked out at 6.31 µM.
Regarding `O=C(Cc1nc2ccccc2o1)C(=O)Nc1ccccc1C(F)(F)F`, the outcome was inactive.
`O=C1NNC2(C(=O)N1)c1ccccc1-c1ccccc12`: the EC50 was more than 200 µM and the IC50 is 93.3 µM.
Take `CCNC(=S)N/N=C/c1ccccn1`: the EC50 is more than 200 µM and the IC50 worked out at 0.851 µM.
As for `O=C1CCC2c3ccccc3NCN12` (stereo not drawn), the result was inactive.
Take `C=C(C)[C@@]1(O)CCCC[C@@H]1CC(Sc1ccccc1)Sc1ccccc1`: the EC50 was more than 200 µM and the IC50 was determined as 19.1 µM.
In the same order, the values of `CC1=N/C(=C\c2cccs2)C(=O)O1` are more than 200 µM and more than 200 µM.
`COC(=O)/C=C(/C(=O)OC)c1c(C)c(C)c2c(C)cc(C)cc(C)c1-2`: the EC50 is more than 200 µM and the IC50 came out at 10 µM.
As for `O=C(O)c1oc2cccc3c2c1CCC3`, the result was inactive.
Turning to `CN(C)C(=S)Oc1ccc2ccc(=O)oc2c1`, the EC50 is more than 200 µM and the IC50 is more than 200 µM.
Regarding `CCCCCCCc1ccc(OC2OC(CO)C(O)C(O)C2O)cc1` (stereo not drawn), the EC50 is more than 126 µM; the IC50 is 29.5 µM and 10.2 µM.
For `N#Cc1ccccc1-c1nc2c3c(c(N)ccc3n1)C(=O)c1ccccc1-2`, the EC50 was more than 200 µM and the IC50 worked out at 40.7 µM.
For `O=C(Nc1ccccn1)Nc1ccccn1`, in that order: more than 200 µM and 107 µM.
In the same order, the values of `Nc1nc(Cl)c(/C=N\O)c(NCC2(CO)CCC2)n1` are more than 20 µM and 11.5 µM.
In the same order, the values of `COc1ccc(-c2c3c(n(C4OC(CO)C(O)C(O)C4O)c(=S)c2C#N)CCCC3)cc1` (stereo not drawn) are more than 200 µM and 55 µM.
In the case of `O=C(CC1(O)C(=O)Nc2c(Cl)cc(Cl)cc21)c1ccc(Cl)cc1` (stereo not drawn), the result was inactive.
Regarding `CC1OC2(CC(OCc3ccccc3)C1OCc1ccccc1)OCCO2` (stereo not drawn), the EC50 was more than 200 µM and the IC50 amounted to 29.5 µM.
For `CC(=O)Nc1ccc(-c2nnc(SCC(=O)Nc3cccc([N+](=O)[O-])c3)o2)cc1`, in that order: more than 45.7 µM and 7.76 µM.
Take `O=C(NO)C12C3C4C1C1C2C3C41C(=O)NO` (stereo not drawn): the EC50 was more than 1120 µM and the IC50 came to 631 µM.
For `CC(=O)N1c2ccccc2Sc2cc(C(O)(C(F)(F)F)C(F)(F)F)ccc21`, in that order: more than 200 µM and 13.5 µM.
Consider `COc1cc2c(cc1OC)C(CCc1ccc(Cl)cc1)N(C)CC2` (stereo not drawn), for which the EC50 is more than 200 µM and the IC50 came out at 91.2 µM.
As for `NC(CSSCC(N)C(=O)c1ccccc1)C(=O)c1ccccc1` (stereo not drawn), the EC50 is more than 200 µM and the IC50 turned out to be 9.77 µM.
Consider `CCOC(=O)C[N+]1(C)CCC(O)CC1` (stereo not drawn), for which the EC50 is more than 200 µM and the IC50 is more than 200 µM.
As to `O=c1c2cc([N+](=O)[O-])ccc2n(Cc2ccccc2)n1Cc1ccccc1`, the EC50 is more than 200 µM and the IC50 was determined as 13.2 µM.
For `CCCCc1ccc(Nc2nc(N)c3[nH]cnc3n2)cc1`, in that order: more than 200 µM and 24.5 µM.
Regarding `CC(C)(CO)C(O)C(=O)NCCS(=O)(=O)O` (stereo not drawn), the EC50 is more than 200 µM and the IC50 was more than 200 µM.
Turning to `COC(=O)N/N=C/c1oc(-c2cccc([N+](=O)[O-])c2)c(-c2cccc([N+](=O)[O-])c2)c1[N+](=O)[O-]`, the EC50 was more than 79.4 µM and the IC50 is more than 79.4 µM.
On to `O=C(CC(C(=O)c1ccsc1)c1ccccc1)c1cccs1` (stereo not drawn), for which the EC50 was more than 200 µM and the IC50 came to 39.8 µM.
In the same order, the values of `CCOC(=O)c1cc(-c2ccc(OC)cc2)c([N+](=O)[O-])n1C` are more than 200 µM and 32.4 µM.
With `CCN1CCC(O)(/C=C/c2ccc(Cl)cc2)C(C(=O)/C=C/c2ccc(Cl)cc2)C1` (stereo not drawn), the EC50 is more than 21.4 µM and the IC50 was more than 21.4 µM.
For the compound `C1CSCCCSCCCSCCCSCCCSCCCSCCCSCCCSC1`, the EC50 was more than 8.71 µM and the IC50 is more than 8.71 µM.
Turning to `CNC(=O)NCCCC(NC(C)=O)C(=O)NCc1ccccc1` (stereo not drawn), the EC50 was more than 112 µM and the IC50 was more than 112 µM.
Consider `CCOC(=O)C(=O)Nc1c(N(CC)CC)n2ccccc2nc1=O`, for which the EC50 was more than 676 µM and the IC50 is more than 676 µM.
Regarding `N[C@@H](C[S-])C(=O)O.O=[N+]([O-])O.[Ag+]`, the EC50 was more than 200 µM and the IC50 was 126 µM.
For `Cc1cc(=O)[nH]c2c1C(=O)c1c(C)cc(=O)n(C)c1C2=O`, in that order: more than 2 µM and 0.257 µM.
Regarding `COC(=O)c1ccc(C)cc1CC1Cc2cc(C)ccc2C1=O` (stereo not drawn), the EC50 is more than 200 µM and the IC50 was more than 200 µM.
Turning to `COC(=O)/C=C\C(C#N)(C#N)N=Cc1sccc1C`, the EC50 is 0.11 µM and the IC50 was found to be 0.398 µM.
Consider `Cc1nn(C(=O)CC(=O)Nc2ccccc2Cl)c(C)c1N=Nc1ccccc1F`, for which the result was inactive.
Consider `COC(CNC(=O)NC(=O)CCC(=O)O)[CH2][Hg][n]1cnc2c1c(=O)n(C)c(=O)n2C` (stereo not drawn), for which the EC50 is more than 200 µM and the IC50 amounted to 85.1 µM.
In the same order, the values of `OC(CN1CCC(c2ccccc2)CC1)c1ccc(Br)cc1` (stereo not drawn) are more than 18.2 µM and more than 18.2 µM.
In the same order, the values of `CC1=CC(C)(C)Nc2ccc(OC(=O)/C=C(C)/C=C/C=C(C)/C=C/C3=C(C)CCCC3(C)C)cc21` are more than 200 µM and 27.5 µM.
With `COC(=O)Nc1cn2ccc(Sc3ccccc3)cc2n1`, the EC50 was more than 45.7 µM and the IC50 was 0.776 µM.
As for `N.N.N.N.O=N[O-].O=N[O-].[Cl-].[Co+3]`, the result was inactive.
Take `CCC(C)C(NC(=O)c1ccccc1SC(=O)CCCC[n+]1ccccc1)C(N)=O` (stereo not drawn): the EC50 is more than 35.5 µM and the IC50 worked out at 4.07 µM.
For the compound `C[N+](C)(C)C1(C(=O)[O-])CC1`, the EC50 is more than 200 µM and the IC50 was more than 200 µM.
As to `COc1ccc(/C=C2\N=C(NN)N=C2Cl)cc1`, the EC50 is more than 200 µM and the IC50 was more than 200 µM.
